Laboratory results reported in patent publication US20250197831A1, “LACTASE SOLUTION” (GODO SHUSEI CO., LTD., priority 2021, published 2025).
Counter-ions that a name gives are not always drawn. Values belong to the compound of their own block, whether it stands above or below them.

Columns and labels:
[1] = target: T1, lactase (Kluyveromyces lactis, UniProt P00723); assay: Residual activity of lactase activity after storage; format: physicochemical; conditions: for Residual Activity: storage at 50° C. for 3 days; for residual activity of lactase activity after storage (storage stability test): 0.005% and 0.01% in 60,000 U/g lactase solution, stored at 12° C. for 30 days
T1 construct: purchased GODO SHUSEI CO., LTD; GODO-YNL2LS
T1 sequence (P00723 whole entry): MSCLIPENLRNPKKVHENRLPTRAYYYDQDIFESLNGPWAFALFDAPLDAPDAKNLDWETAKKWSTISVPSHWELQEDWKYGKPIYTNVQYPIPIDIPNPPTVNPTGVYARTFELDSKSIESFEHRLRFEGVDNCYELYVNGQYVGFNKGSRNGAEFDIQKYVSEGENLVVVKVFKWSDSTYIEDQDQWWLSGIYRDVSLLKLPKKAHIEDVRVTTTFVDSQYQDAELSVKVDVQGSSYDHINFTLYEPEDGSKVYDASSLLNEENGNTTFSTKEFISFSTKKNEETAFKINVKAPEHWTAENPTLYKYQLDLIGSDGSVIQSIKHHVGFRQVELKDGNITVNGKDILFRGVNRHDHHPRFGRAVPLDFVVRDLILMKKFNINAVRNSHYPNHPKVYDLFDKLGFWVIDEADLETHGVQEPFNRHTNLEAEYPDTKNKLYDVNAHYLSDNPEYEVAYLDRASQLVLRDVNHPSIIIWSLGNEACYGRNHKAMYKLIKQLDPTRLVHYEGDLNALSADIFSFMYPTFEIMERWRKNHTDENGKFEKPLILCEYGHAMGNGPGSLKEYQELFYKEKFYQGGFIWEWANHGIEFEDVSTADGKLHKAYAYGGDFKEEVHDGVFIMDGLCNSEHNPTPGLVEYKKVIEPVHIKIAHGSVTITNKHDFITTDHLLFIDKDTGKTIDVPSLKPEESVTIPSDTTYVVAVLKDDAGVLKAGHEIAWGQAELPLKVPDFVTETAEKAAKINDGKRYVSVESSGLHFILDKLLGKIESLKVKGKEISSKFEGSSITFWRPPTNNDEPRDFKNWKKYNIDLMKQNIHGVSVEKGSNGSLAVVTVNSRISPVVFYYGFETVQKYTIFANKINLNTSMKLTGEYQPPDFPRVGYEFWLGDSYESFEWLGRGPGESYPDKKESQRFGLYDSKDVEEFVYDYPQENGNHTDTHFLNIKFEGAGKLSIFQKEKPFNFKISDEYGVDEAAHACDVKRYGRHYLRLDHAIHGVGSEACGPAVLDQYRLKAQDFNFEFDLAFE
Experimental: In the following examples and the like, commercially available GODO-YNL2LS (manufactured by GODO SHUSEI CO., LTD.) was used as the lactase solution. […]
A diluted enzyme solution (0.5 mL) and 0.5 mL of a basic buffer (100 mM phosphate buffer (pH 6.5) containing 0.1 mM manganese chloride) are mixed, and the mixture is preheated at 37° C. for 3 minutes, and then, 1.0 mL of a 1.65 mM O-nitrophenyl-β-D-galactopyranoside (ONPG) aqueous solution is added thereto to cause a reaction at 37° C. for 1 minute. After 2.0 mL of a reaction stop solution (200 mM sodium carbonate) was added thereto, the absorbance at OD 420 nm was measured. One unit (U) is the enzyme activity that increases the OD […] by 1 from the substrate in 10 minutes.
(§1) A predetermined amount of a given additive was added to GODO-YNL2LS, and the slope (−a) showing filter permeability and the residual activity of lactase activity were measured.
Each lactase solution was obtained by adding the additive shown in the table in a predetermined amount to 60,000 U/g GODO-YNL2LS. Each lactase solution immediately after preparation was subjected to a filter permeability test and a lactase activity measurement by the above-mentioned methods. […]
In a container, 0.03 g of a saturated fatty acid and 1 mL of a 1 M aqueous sodium hydroxide solution were mixed, and 4 mL of distilled water was added thereto. The mixture was subjected to a saponification treatment in boiling water at 100° C. for 5 minutes, then left to cool to room temperature, and the reaction product was added to 294 g of a total amount of the lactase solution (GODO-YNL2LS) (addition amount: 0.01%). The filtrate obtained by filtering this was subjected to a filter permeability test and a residual activity of lactase activity.
In this example, 108 g of 99% glycerin was mixed with 0.03 g of the unsaturated fatty acid in a container. The mixture was added to 192 g of a total amount of the lactase solution (GODO-YNL2LS) (addition amount: 0.01%). The filtrate obtained by filtering this was subjected to a filter permeability test and a residual activity of lactase activity.

[2] = Filter permeability test of the lactase solution (slope −a of flux vs permeate); format: physicochemical; conditions: for Slope (−a) Before Shaking: immediately after preparation; for Slope (−a) After Shaking: shaken at 20° C., 30 mm, 100 spm, 1 hour
Experimental: The detailed conditions in this example of the filter permeability test will be described in detail below.
The following operation was performed in an environment of 5 to 15° C. • 1. A measuring apparatus, a lactase solution sample, and distilled water were cooled to the test environment temperature. • 2. The lactase solution sample was diluted with distilled water or concentrated by ultrafiltration to adjust the lactase activity to 16,000 to 17,500 U/g and mixed well. • 3. In the test, one in which a 25 nun stainless steel filter holder (manufactured by PALL Corporation, product number 1209 (effective membrane area: 3.7 cm^2)) is connected to a stainless steel holder with a 47 mm tank (Advantec Toyo Kaisha, Ltd., product name “KST-47”) was used as an apparatus. A sample permeating portion in the filter holder is configured to include an O-ring, a membrane, a support screen, and an underdrain disc from the measurement sample inlet side (in the test of the present invention, the filter of the stainless steel holder with the tank and the parts of the filter bolding portion (the support screen and the support thereof) were not attached). As the membrane, DURAPORE (product name) (pore diameter: 0.22 μm, φ25 mm, made of hydrophilic PVDF) manufactured by Merck Millipore was used, and as the support screen, Type 316 stainless steel attached to the filter holder was used. In addition, in order to adjust the permeation rate, four circular label stickers (manufactured by A-One Co., Ltd., product name A-one color label 07010) having a diameter of 0.9 cm were stuck symmetrically to an upper portion of the support screen (measurement sample inlet side) (effective membrane area: 1.26 cm^2), and a membrane filter (pore diameter: 0.22 μm) was set. The membrane was rinsed with a 50% glycerin aqueous solution and attached to the stainless steel filter holder. • 4. The lactase solution sample (sample) diluted in 2. was charged into the stainless steel holder with the tank. • 5. A pressure of 0.2 MPa was applied to the stainless steel holder with the tank using an air compressor (manufactured by Yaezaki Kuatsu Co., Ltd., product name “KAPSEL-CON YC-3R” or “PC4-15HLM”), and the enzyme solution was pumped. The permeate was received in a container such as a beaker, the amount of the permeate was recorded every 10 seconds, and (1) the permeation amount (permeate (kg/m^2)) and (2) the permeation rate (flux (kg/min×m^2)) per square meter of the membrane were determined by the following method. In addition, the slope a of an approximate curve y=ax+b obtained when (1) is plotted on the x axis and (2) is plotted on the y axis was determined.
Permeate (kg/m^2)=weight (g) of product that permeated at point n/(membrane radius (mm))×membrane radius (mm)×circumference ratio)(m^2)×1000 (1)
Flux (kg/min×m^2)=(permeate at point n−permeate at point (n−1))/(permeation time (min) at point n−permeation time (min) at point (n−1)) (2) • *n indicates a measurement point. In order to record the permeation amount for every 10 seconds, for example, when the point n is for the permeation amount or permeate at the time of permeation for 10 seconds, the point (n−1) is for the permeation amount of permeate at the time of permeation for 0 seconds.
as §1
Each lactase solution was obtained by adding the additive shown in the table in a predetermined amount to 60,000 U/g GODO-YNL2LS. […] The lactase activity of each lactase solution after storage at 50° C. for 3 days was measured.

Compound: C[N+](C)(C)CC(=O)O [Betaine Hydrochloride]
- Residual Activity ([1]; Table 2, addition amount 0.1): 66.5%
- Slope Before Shaking ([2]; Table 2, addition amount 0.1, immediately after preparation): 0.0291

Compound: N[C@@H](CS)C(=O)O [Cysteine]
- Residual Activity ([1]; Table 2, addition amount 0.02): 1.1%

Compound: CCCCC/C=C\C/C=C\CCCCCCCC(=O)O [Linoleic Acid]
- residual activity of lactase activity after storage (storage stability test) [1]: practical level
- Residual Activity ([1]; additive 0.01 %): 61.1%
- Slope (−a) Before Shaking ([2]; additive 0.01 % in GODO-YNL2LS): 0.0265
- Slope (−a) After Shaking ([2]; additive 0.01 %): 0.0253

- Slope (−a) Before Shaking ([2]; additive 0.01 % in GODO-YNL2LS): 0.0228
Compound: CCCCCCCCCC(=O)[O-].[Na+] [Na Decanoate]

- Slope (−a) Before Shaking ([2]; additive 0.01 % in GODO-YNL2LS): 0.0176
- Slope (−a) After Shaking ([2]; additive 0.01 %): 0.0590
Compound: CCCCCCCCCCCC(=O)[O-].[Na+] [Na Laurate]

Compound: CCCCCCCCCCCCCC(=O)[O-].[Na+] [Na Myristate]
- Residual Activity ([1]; additive 0.01 %): 70.7%
- Slope (−a) Before Shaking ([2]; additive 0.01 % in GODO-YNL2LS): 0.0147

Compound: CCCCCCCC/C=C\CCCCCCCC(=O)[O-].[Na+] [Na Oleate]
- Residual Activity ([1]; additive 0.005 %): 64.3%
- Residual Activity ([1]; additive 0.01 %): 71.4%
- Slope (−a) Before Shaking ([2]; additive 0.005 % in GODO-YNL2LS): 0.0243
- Slope (−a) After Shaking ([2]; additive 0.005 %): 0.0216
- Slope (−a) Before Shaking ([2]; additive 0.1 % in GODO-YNL2LS): 0.0542
- Slope (−a) After Shaking ([2]; additive 0.1 %): 0.0405

Compound: CCCCCCCCCCCCCCCC(=O)[O-].[Na+] [Na Palmitate]
- Residual Activity ([1]; additive 0.01 %): 61.5%
- Slope (−a) Before Shaking ([2]; additive 0.01 % in GODO-YNL2LS): 0.0200
- Slope (−a) After Shaking ([2]; additive 0.01 %): deteriorated

Compound: CCCCCCCCCCCCCCCCCC(=O)[O-].[Na+] [Na Stearate]
- Residual Activity ([1]; additive 0.01 %): 61.9%
- Slope (−a) Before Shaking ([2]; additive 0.01 % in GODO-YNL2LS): 0.0273
- Slope (−a) After Shaking ([2]; additive 0.01 %): deteriorated

Compound: CCCCCCCC/C=C\CCCCCCCC(=O)O [Oleic Acid]
- residual activity of lactase activity after storage (storage stability test) [1]: practical level
- Residual Activity ([1]; additive 0.01 %): 72.0%
- Slope (−a) Before Shaking ([2]; additive 0.01 % in GODO-YNL2LS): 0.0272
- Slope (−a) After Shaking ([2]; additive 0.01 %): 0.0407

Compound: N[C@@H](CCC(=O)N[C@@H](CS)C(=O)NCC(=O)O)C(=O)O [Reduced Glutathione]
- Residual Activity ([1]; Table 2, addition amount 0.02): 19.9%
